Laboratory results reported in patent publication US7615642B2, “Therapeutic compounds” (priority 2006, dated 2009).
pEC50, pKi: −log10 of the molar value. Converted amounts (≈) assume the structure as drawn.

Assays:
Human CB1 receptor [1] = molecular target: T1, Human CB1 receptor (Homo sapiens, UniProt P21554); test: hCB1 receptor binding (3H-CP55,940 displacement)
T1 construct: purchased Receptor Biology
Experimental: Human CB1 receptor from Receptor Biology (hCB1) or human CB2 receptor from BioSignal (hCB2) membranes are thawed at 37° C., passed 3 times through a 25-gauge blunt-end needle, diluted in the cannabinoid binding buffer (50 mM Tris, 2.5 mM EDTA, 5 mM MgCl2, and 0.5 mg/mL BSA fatty acid free, pH 7.4) and aliquots containing the appropriate amount of protein are distributed into 96-well plates. The IC50 of the compounds of the invention at hCB1 and hCB2 are evaluated from 10-point dose-response curves done with ^3H-CP55,940 at 20000 to 25000 dpm per well (0.17-0.21 nM) in a final volume of 300 μl. The total and non-specific binding are determined in the absence and presence of 0.2 μM of HU210 respectively. The plates are vortexed and incubated for 60 minutes at room temperature, filtered through Unifilters GF/B (presoaked in 0.1% polyethyleneimine) with the Tomtec or Packard harvester using 3 mL of wash buffer (50 mM Tris, 5 mM MgCl2, 0.5 mg BSA pH 7.0). The filters are dried for 1 hour at 55° C. The radioactivity (cpm) is counted in a TopCount (Packard) after adding 65 μl/well of MS-20 scintillation liquid.
Based on the above assays, the dissociation constant (Ki) for a particular compound of the invention towards a particular receptor is determined using the following equation: Ki=IC50/(1+[rad]/Kd),
Wherein IC50 is the concentration of the compound of the invention at which 50% displacement has been observed;
[rad] is a standard or reference radioactive ligand concentration at that moment; and
Kd is the dissociation constant of the radioactive ligand towards the particular receptor.

Human CB1 receptor [2] = molecular target: T1, Human CB1 receptor; test: hCB1 GTPγS binding; format: biochemical; settings: human CB1 membranes, GTPg35S binding
Experimental: Human CB1 receptor from Receptor Biology (hCB1) or human CB2 receptor membranes (BioSignal) are thawed at 37° C., passed 3 times through a 25-gauge blunt-end needle and diluted in the GTPγS binding buffer (50 mM Hepes, 20 mM NaOH, 100 mM […], 1 mM EDTA, 5 mM MgCl2, pH 7.4, 0.1% BSA). The EC50 and Emax of the compounds of the invention are evaluated from 10-point dose-response curves done in […] with the appropriate amount of membrane protein and 100000-130000 dpm of GTPg^35S per well (0.11-0.14 nM). The basal and maximal stimulated binding is determined in absence and presence of 1 μM (hCB2) or 10 μM (hCB1) Win 55,212-2 respectively. The membranes are pre-incubated for 5 minutes with 56.25 μM (hCB2) or 112.5 μM (hCB1) GDP prior to distribution in plates (15 μM (hCB2) or 30 μM (hCB1) GDP final). The plates are vortexed and incubated for 60 minutes at room temperature, filtered on Unifilters GF/B (presoaked in water) with the Tomtec or Packard harvester using 3 ml of wash buffer (50 mM Tris, 5 mM MgCl2, 50 mM NaCl, pH 7.0). The filters are dried for 1 hour at 55° C. The radioactivity (cpm) is counted in a TopCount (Packard) after adding 65 μl/well of MS-20 scintillation liquid. Antagonist reversal studies are done in the same way except that (a) an agonist dose-response curve is done in the presence of a constant concentration of antagonist, or (b) an antagonist dose-response curve is done in the presence of a constant concentration of agonist.

T1 sequence (P21554 whole entry): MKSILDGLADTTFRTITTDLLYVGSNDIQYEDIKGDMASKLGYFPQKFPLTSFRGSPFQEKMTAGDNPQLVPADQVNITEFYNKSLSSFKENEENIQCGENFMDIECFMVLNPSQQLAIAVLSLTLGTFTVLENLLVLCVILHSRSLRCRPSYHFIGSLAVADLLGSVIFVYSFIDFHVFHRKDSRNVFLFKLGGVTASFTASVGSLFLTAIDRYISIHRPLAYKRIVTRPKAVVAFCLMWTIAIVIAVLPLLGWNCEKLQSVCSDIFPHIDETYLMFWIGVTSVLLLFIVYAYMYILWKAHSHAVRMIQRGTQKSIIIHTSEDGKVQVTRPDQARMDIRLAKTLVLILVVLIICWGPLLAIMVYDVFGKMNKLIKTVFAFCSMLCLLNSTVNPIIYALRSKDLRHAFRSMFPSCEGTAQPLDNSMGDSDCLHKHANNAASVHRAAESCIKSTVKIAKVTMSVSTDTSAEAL

Structure (SMILES) | pKi (Human CB1 receptor [1]) | pEC50 (Human CB1 receptor [2]) | solubility (Solubility)
CC(F)(F)c1nc2cc(S(=O)(=O)n3ccc(C(=O)NC4CC4)c3)ccc2n1CC1CCOCC1 [N-Cyclopropyl-1-{[2-(1,1-difluoroethyl)-1-(tetrahydro-2H-pyran-4-ylmethyl)-1H-benzimidazol-5-yl]sulfonyl}-1H-pyrrole-3-carboxamide] | 7.72 | 7.75 | 6.2 µM (≈ 3.05 µg/mL)
CC(C)(C)c1nc2cc(S(=O)(=O)N3CCC(c4ccccc4)C3)ccc2n1CC1CCOCC1 (stereo not drawn) [2-tert-Butyl-5-[(3-phenylpyrrolidin-1-yl)sulfonyl]-1-(tetrahydro-2H-pyran-4-ylmethyl)-1H-benzimidazole] | 6.96 |  | 7.29 µM (≈ 3.51 µg/mL)
CC(C)NC(=O)c1cnn(S(=O)(=O)c2ccc3c(c2)nc(C(C)(C)C)n3CC2CCC(F)(F)CC2)c1 [1-({2-tert-Butyl-1-[(4,4-difluorocyclohexyl)methyl]-1H-benzimidazol-5-yl}sulfonyl)-N-isopropyl-1H-pyrazole-4-carboxamide] | 8.74 | 8.47 | 0.26 µM (≈ 0.136 µg/mL)
CCNC(=O)c1ccn(S(=O)(=O)c2ccc3c(c2)nc(C(C)(C)C)n3CC2CCOCC2)c1 [1-{[2-tert-butyl-1-(tetrahydro-2H-pyran-4-ylmethyl)-1H-benzimidazol-5-yl]sulfonyl}-N-ethyl-1H-pyrrole-3-carboxamide] | 7.62 | 7.07 | 28 µM (≈ 13.2 µg/mL)
CC(C)(C)c1nc2cc(S(=O)(=O)n3ccc(N)n3)ccc2n1CC1CCOCC1 [1-{[2-tert-Butyl-1-(tetrahydro-2H-pyran-4-ylmethyl)-1H-benzimidazol-5-yl]sulfonyl}-1H-pyrazol-3-amine] | 6.60 |  | 43 µM (≈ 18 µg/mL)
CC(C)(C)c1nc2cc(S(=O)(=O)N3CCOCC3)ccc2n1CC1CCOCC1 [2-tert-Butyl-5-(morpholin-4-ylsulfonyl)-1-(tetrahydro-2H-pyran-4-ylmethyl)-1H-benzimidazole] | 5.81 |  | 128 µM (≈ 54.1 µg/mL)
CC(C)(C)c1nc2cc(S(=O)(=O)N3CCC[C@H](C(=O)NC4CC4)C3)ccc2n1CC1CCC(F)(F)CC1 [(3S)-1-({2-tert-Butyl-1-[(4,4-difluorocyclohexyl)methyl]-1H-benzimidazol-5-yl}sulfonyl)-N-cyclopropylpiperidine-3-carboxamide] | 8.69 | 8.77 | 29.4 µM (≈ 15.8 µg/mL)
CCCNC(=O)[C@H]1CCCN(S(=O)(=O)c2ccc3c(c2)nc(C(C)(C)C)n3CC2CCC(F)(F)CC2)C1 [(3S)-1-({2-tert-Butyl-1-[(4,4-difluorocyclohexyl)methyl]-1H-benzimidazol-5-yl}sulfonyl)-N-propylpiperidine-3-carboxamide] | 8.69 | 8.77 | 16.8 µM (≈ 9.04 µg/mL)
CCNC(=O)c1ccn(S(=O)(=O)c2ccc3c(c2)nc(C(C)(F)F)n3CC2CCOCC2)c1 [1-{[2-(1,1-Difluoroethyl)-1-(tetrahydro-2H-pyran-4-ylmethyl)-1H-benzimidazol-5-yl]sulfonyl}-N-ethyl-1H-pyrrole-3-carboxamide] | 7.06 |  | 7.45 µM (≈ 3.58 µg/mL)
CCNC(=O)c1cnn(S(=O)(=O)c2ccc3c(c2)nc(C(C)(C)C)n3CC2CCOCC2)c1 [1-{[2-tert-Butyl-1-(tetrahydro-2H-pyran-4-ylmethyl)-1H-benzimidazol-5-yl]sulfonyl}-N-ethyl-1H-pyrazole-4-carboxamide] | 7.84 | 7.24 | 337 µM (≈ 160 µg/mL)
CCNC(=O)[C@@H]1CN(S(=O)(=O)c2ccc3c(c2)nc(C(C)(C)C)n3CC2CCC(F)(F)CC2)CCO1 [(2S)-4-({2-tert-butyl-1-[(4,4-difluorocyclohexyl)methyl]-1H-benzimidazol-5-yl}sulfonyl)-N-ethylmorpholine-2-carboxamide] | 7.74 | 7.36 | 43.4 µM (≈ 22.8 µg/mL)
CC(C)(C)c1nc2cc(S(=O)(=O)N3CCCC(c4ccccc4)C3)ccc2n1CC1CCOCC1 (stereo not drawn) [2-tert-Butyl-5-[(3-phenylpiperidin-1-yl)sulfonyl]-1-(tetrahydro-2H-pyran-4-ylmethyl)-1H-benzimidazole] | 6.56 |  | 0.79 µM (≈ 0.392 µg/mL)
CC(C)(C)c1nc2cc(S(=O)(=O)n3ccc(C(=O)NC4CC4)c3)ccc2n1CC1CCOCC1 [1-{[2-tert-Butyl-1-(tetrahydro-2H-pyran-4-ylmethyl)-1H-benzimidazol-5-yl]sulfonyl}-N-cyclopropyl-1H-pyrrole-3-carboxamide] | 8.25 | 7.98 | 5.64 µM (≈ 2.73 µg/mL)
CNC(=O)C1CCN(S(=O)(=O)c2ccc3c(c2)nc(C(C)(C)C)n3CC2CCOCC2)C1 (stereo not drawn) [1-{[2-tert-Butyl-1-(tetrahydro-2H-pyran-4-ylmethyl)-1H-benzimidazol-5-yl]sulfonyl}-N-methylpyrrolidine-3-carboxamide] | 6.08 |  | 2600 µM (≈ 1200 µg/mL)
CC(C)(C)c1nc2cc(S(=O)(=O)n3cc(C(=O)NC4CC4)cn3)ccc2n1CC1CCC(F)(F)CC1 [1-({2-tert-Butyl-1-[(4,4-difluorocyclohexyl)methyl]-1H-benzimidazol-5-yl}sulfonyl)-N-cyclopropyl-1H-pyrazole-4-carboxamide] | 9.06 | 9.24 | 6.16 µM (≈ 3.2 µg/mL)
CNC(=O)c1cnn(S(=O)(=O)c2ccc3c(c2)nc(C(C)(C)C)n3CC2CCC(F)(F)CC2)c1 [1-({2-tert-Butyl-1-[(4,4-difluorocyclohexyl)methyl]-1H-benzimidazol-5-yl}sulfonyl)-N-methyl-1H-pyrazole-4-carboxamide] | 8.79 | 8.92 | 2.52 µM (≈ 1.24 µg/mL)
CC(C)(C)c1nc2cc(S(=O)(=O)N3CCOC(C(=O)NC4CC4)C3)ccc2n1CC1CCC(F)(F)CC1 (stereo not drawn) [4-({2-tert-Butyl-1-[(4,4-difluorocyclohexyl)methyl]-1H-benzimidazol-5-yl}sulfonyl)-N-cyclopropylmorpholine-2-carboxamide] | 7.95 | 7.98 | 42.5 µM (≈ 22.9 µg/mL)
